Among the data in patent US11964950B2, “Arylamide derivative having antitumor activity” (priority 2020, dated 2024) are IC50 values, retold here.

Assay type in all cases: cell-based
The test system of assay [1] is Calu-6 human lung cancer cells. Nature of the assay: Cell proliferation-inhibiting activity, Calu-6 (CellTiter-Glo, ATP in viable cells). The conditions noted are these: Calu-6, 96 h, Table 3, 4 days culture. The procedure:
(§1) The cell proliferation-inhibiting activity of the compounds listed in Table 3 below was evaluated by measuring the amount of ATP in viable cells as described below.
(§2) The test compound was serially diluted with DMSO and then diluted 25-fold with Ca^2+, Mg^2+-free phosphate-buffered saline, and was then dispensed into a 96-well plate at 5 μL per well. A cell suspension containing the below indicated concentration of A549, Calu-6 or NCI-H2122 human lung cancer cells (all obtained from ATCC) was prepared using the below indicated medium with the addition of 10% fetal bovine serum (Sigma). The cell suspension was dispensed into the test compound-added plate at 95 μL per well and cultured in a 5% carbon dioxide gas incubator at 37° C. After 4 days, 80 μL of CellTiter-Glo (registered trademark) (Promega Corp.) was added to each well and the bioluminescence was measured with a fluorescent plate reader.
Calu-6: Eagle's Minimum Essential Medium (Sigma); 4000 cells/95 μL

For assay [2], the system named is NCI-H2122 human lung cancer cells. The assay is described as follows: Cell proliferation-inhibiting activity, NCI-H2122 (CellTiter-Glo, ATP in viable cells). The conditions noted are these: NCI-H2122, 96 h, Table 3, 4 days culture. The procedure: as §1, §2
In assay [3] the test system is A549 human lung cancer cells. The assay is described as follows: Cell proliferation-inhibiting activity, A549 (CellTiter-Glo, ATP in viable cells). The following applies: A549, 96 h, Table 3, 4 days culture. The procedure: as §1, §2
A549: Dulbecco's Modified Eagle's Medium (Sigma); 2000 cells/95 μL

Consider `NC(=O)c1cc(Cc2ccnc(NS(=O)(=O)NC3CC3)c2F)c(F)cc1Nc1ccc(I)cc1F` [1-3, 5-[[2-(Cyclopropylsulfamoylamino)-3-fluoropyridin-4-yl]methyl]-4-fluoro-2-(2-fluoro-4-iodoanilino)benzamide], for which the IC50 in assay [1] was 120 nM; in assay [2] it was 21 nM; in assay [3] it was 32 nM.
As to `CNS(=O)(=O)Nc1nccc(Cc2cc(C(=O)NC3CC3)c(Nc3ccc(I)cc3F)c(F)c2F)c1F` [A-2, N-cyclopropyl-3,4-difluoro-2-(2-fluoro-4-iodoanilino)-5-[[3-fluoro-2-(methylsulfamoylamino)pyridin-4-yl]methyl]benzamide], the IC50 in assay [1] was found to be 2 nM; in assay [2] it was 0.1 nM; in assay [3], 1 nM.
The like results for `CNS(=O)(=O)Nc1nccc(Cc2cc(C(=O)NC3CC3)c(Nc3ccc(C4CC4)cc3F)c(F)c2F)c1F` [G-1, N-Cyclopropyl-2-(4-cyclopropyl-2-fluoroanilino)-3,4-difluoro-5-[[3-fluoro-2-(methylsulfamoylamino)pyridin-4-yl]methyl]benzamide] were, in that order, 65 nM, 6 nM and 21 nM.
On to `CNS(=O)(=O)Nc1nccc(Cc2cc(C(N)=O)c(Nc3ccc(C4CC4)cc3F)n(C)c2=O)c1F` [J-3, 2-(4-Cyclopropyl-2-fluoroanilino)-5-[[3-fluoro-2-(methylsulfamoylamino)pyridin-4-yl]methyl]-1-methyl-6-oxopyridine-3-carboxamide], for which the values for the IC50 in assay [1], in assay [2] and in assay [3] were 972 nM, 123 nM and 854 nM, respectively.
